Assay results from ChEMBL document CHEMBL1201862, “PubChem BioAssay data set” (2004).
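These data come from cells grown in 96-well plates and exposed to compound for 48 hours at five concentrations. At the GI50, growth is halved.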 Activity calls are given as the source filed them. Rule as the data show it: active = GI50 up to about 1.1 µM and inactive = higher.

Experiments:
Experiment in all cases: growth of human tumour cells (NCI), 48 h
A549 = tested on: A549
CCRF-CEM = tested on: CCRF-CEM
COLO 205 = tested on: COLO 205
DU-145 = tested on: DU-145
EKVX = tested on: EKVX
HT-29 = tested on: HT-29
MCF7 = tested on: MCF7
MDA-MB-231 = tested on: MDA-MB-231
NCI-H226 = tested on: NCI-H226
NCI-H522 = tested on: NCI-H522
SF-268 = tested on: SF-268
SF-295 = tested on: SF-295
SF-539 = tested on: SF-539
SK-OV-3 = tested on: SK-OV-3
SN12C = tested on: SN12C
TK-10 = tested on: TK-10
U-251 = tested on: U-251
UACC-62 = tested on: UACC-62
Hs-578T = tested on: Hs-578T

Structure (SMILES)	GI50 (A549)	GI50 (CCRF-CEM)	GI50 (COLO 205)	GI50 (DU-145)	GI50 (EKVX)	GI50 (HT-29)	GI50 (MCF7)	GI50 (MDA-MB-231)	GI50 (NCI-H226)	GI50 (NCI-H522)	GI50 (SF-268)	GI50 (SF-295)	GI50 (SF-539)	GI50 (SK-OV-3)	GI50 (SN12C)	GI50 (TK-10)	GI50 (U-251)	GI50 (UACC-62)	GI50 (Hs-578T)
S=c1[nH]nc(Cn2c3ccc(Br)cc3c3nc4ccccc4nc32)o1	22.8 µM (inactive)	24.7 µM (inactive)	46.9 µM (inactive)	36.6 µM (inactive)	71.6 µM (inactive)	35.6 µM (inactive)	39 µM (inactive)	> 45.4 µM (inactive)	> 77.3 µM (inactive)	20.2 µM (inactive)	> 60.5 µM (inactive)	42.9 µM (inactive)	30.4 µM (inactive)	> 78.5 µM (inactive)	51.9 µM (inactive)	69.5 µM (inactive)	0.944 µM (active)	27.5 µM (inactive)	–
COCP1(=S)OC(C)CCN1C(C)C (stereo unspecified)	> 100 µM (inactive)	–	> 100 µM (inactive)	> 100 µM (inactive)	> 100 µM (inactive)	> 100 µM (inactive)	> 100 µM (inactive)	> 100 µM (inactive)	> 100 µM (inactive)	–	> 100 µM (inactive)	> 100 µM (inactive)	> 100 µM (inactive)	> 100 µM (inactive)	–	> 100 µM (inactive)	> 100 µM (inactive)	> 100 µM (inactive)	–
COc1ccccc1/C=C1\C(=O)N(C(=O)Cc2ccccc2)N=C1C	> 100 µM (inactive)	> 100 µM (inactive)	> 100 µM (inactive)	–	> 100 µM (inactive)	> 100 µM (inactive)	–	–	> 100 µM (inactive)	> 100 µM (inactive)	> 100 µM (inactive)	> 100 µM (inactive)	> 100 µM (inactive)	–	> 100 µM (inactive)	> 100 µM (inactive)	> 100 µM (inactive)	–	–
CSc1csc(-c2ccc(-c3ccc(-c4cc(SC)cs4)s3)s2)c1	> 100 µM (inactive)	> 100 µM (inactive)	> 100 µM (inactive)	–	> 100 µM (inactive)	> 100 µM (inactive)	> 100 µM (inactive)	> 100 µM (inactive)	> 100 µM (inactive)	–	> 100 µM (inactive)	> 100 µM (inactive)	> 100 µM (inactive)	> 100 µM (inactive)	> 100 µM (inactive)	> 100 µM (inactive)	> 100 µM (inactive)	> 100 µM (inactive)	> 100 µM (inactive)
CN(C(=O)Cc1ccc(Cl)c(Cl)c1)[C@@H]1CCCC[C@H]1[N+]1(C)CC=CC1	> 100 µM (inactive)	–	> 100 µM (inactive)	> 100 µM (inactive)	> 100 µM (inactive)	> 100 µM (inactive)	> 100 µM (inactive)	> 100 µM (inactive)	> 100 µM (inactive)	> 100 µM (inactive)	> 100 µM (inactive)	> 100 µM (inactive)	–	> 100 µM (inactive)	> 100 µM (inactive)	> 100 µM (inactive)	> 100 µM (inactive)	> 100 µM (inactive)	–
Cc1ccc([N+](=O)[O-])cc1S(=O)(=O)Nc1ccc(C2=NN(S(=O)(=O)c3cc([N+](=O)[O-])ccc3C)C(c3ccco3)C2)cc1 (stereo unspecified)	–	27.6 µM (inactive)	39.4 µM (inactive)	45 µM (inactive)	29.2 µM (inactive)	54 µM (inactive)	32.1 µM (inactive)	–	38.9 µM (inactive)	45 µM (inactive)	53.3 µM (inactive)	32.8 µM (inactive)	53 µM (inactive)	> 100 µM (inactive)	44.8 µM (inactive)	–	–	21.8 µM (inactive)	> 100 µM (inactive)
CCOC(=O)[C@H]1C[C@]23CN(C(=O)OC(C)(C)C)CC[C@H]2CCC2(SCCCS2)[C@@H]3N1C	37.8 µM (inactive)	29.1 µM (inactive)	28.2 µM (inactive)	54.3 µM (inactive)	27.3 µM (inactive)	22.5 µM (inactive)	38.7 µM (inactive)	–	29.6 µM (inactive)	27.5 µM (inactive)	50.4 µM (inactive)	38.3 µM (inactive)	29.6 µM (inactive)	> 100 µM (inactive)	21.3 µM (inactive)	36.6 µM (inactive)	34.4 µM (inactive)	40.5 µM (inactive)	51.6 µM (inactive)
O=c1cc(-c2ccccc2)oc2ccc(Oc3nnnn3-c3ccccc3)cc12	> 90.8 µM (inactive)	> 100 µM (inactive)	> 87.3 µM (inactive)	> 100 µM (inactive)	12.1 µM (inactive)	> 100 µM (inactive)	> 45.9 µM (inactive)	–	25 µM (inactive)	70.5 µM (inactive)	11.8 µM (inactive)	29.2 µM (inactive)	27.7 µM (inactive)	> 65.3 µM (inactive)	> 42.3 µM (inactive)	> 100 µM (inactive)	35 µM (inactive)	> 48.2 µM (inactive)	28.3 µM (inactive)
COC1C(CN[N+](=O)CC2OC3OC(C)(C)OC3C2OC)OC2OC(C)(C)OC21 (stereo unspecified)	> 100 µM (inactive)	> 100 µM (inactive)	> 100 µM (inactive)	–	> 100 µM (inactive)	> 100 µM (inactive)	–	–	> 100 µM (inactive)	–	> 100 µM (inactive)	> 100 µM (inactive)	> 100 µM (inactive)	> 100 µM (inactive)	> 100 µM (inactive)	> 100 µM (inactive)	> 100 µM (inactive)	> 100 µM (inactive)	–
CCOP(=O)(/C=C\n1cc(C)c(=O)[nH]c1=O)OCC	> 100 µM (inactive)	> 100 µM (inactive)	> 100 µM (inactive)	> 100 µM (inactive)	> 100 µM (inactive)	> 100 µM (inactive)	> 100 µM (inactive)	> 100 µM (inactive)	> 100 µM (inactive)	12.1 µM (inactive)	> 100 µM (inactive)	> 100 µM (inactive)	> 100 µM (inactive)	> 100 µM (inactive)	> 100 µM (inactive)	> 100 µM (inactive)	> 100 µM (inactive)	> 100 µM (inactive)	–
CCCCCCCCCCCCCCCCCCOP1(=O)OCCO1	79.4 µM (inactive)	54 µM (inactive)	> 100 µM (inactive)	> 100 µM (inactive)	> 100 µM (inactive)	> 100 µM (inactive)	> 100 µM (inactive)	44.5 µM (inactive)	> 100 µM (inactive)	54.6 µM (inactive)	–	28.5 µM (inactive)	> 100 µM (inactive)	> 100 µM (inactive)	> 100 µM (inactive)	30.4 µM (inactive)	27.9 µM (inactive)	> 100 µM (inactive)	–
CC12CC(c3ccccc3O1)C(C(=O)Nc1cccc(F)c1)C(=O)N2 (stereo unspecified)	52.1 µM (inactive)	26.3 µM (inactive)	62.7 µM (inactive)	> 100 µM (inactive)	31.6 µM (inactive)	55.8 µM (inactive)	44.7 µM (inactive)	–	–	> 100 µM (inactive)	> 100 µM (inactive)	64 µM (inactive)	> 100 µM (inactive)	> 100 µM (inactive)	–	–	> 100 µM (inactive)	52.6 µM (inactive)	> 100 µM (inactive)
c1ccc2c(c1)SCCCSCCSCCCS2	> 100 µM (inactive)	> 100 µM (inactive)	> 100 µM (inactive)	> 100 µM (inactive)	99.8 µM (inactive)	> 100 µM (inactive)	> 100 µM (inactive)	57.3 µM (inactive)	–	> 100 µM (inactive)	> 100 µM (inactive)	> 100 µM (inactive)	> 100 µM (inactive)	> 100 µM (inactive)	> 100 µM (inactive)	> 100 µM (inactive)	> 100 µM (inactive)	> 100 µM (inactive)	–
CNC(=S)N/N=C(\C)c1ccc(OC)cc1O	> 100 µM (inactive)	0.865 µM (active)	0.258 µM (active)	> 100 µM (inactive)	82.6 µM (inactive)	0.337 µM (active)	–	> 100 µM (inactive)	73.8 µM (inactive)	2.72 µM (inactive)	> 100 µM (inactive)	> 100 µM (inactive)	> 100 µM (inactive)	> 100 µM (inactive)	> 91.4 µM (inactive)	–	> 73.5 µM (inactive)	> 100 µM (inactive)	> 89.9 µM (inactive)
C=CC(CCc1ccc(C(=O)OCC)cc1)c1c(N)nc(N)[nH]c1=O (stereo unspecified)	> 100 µM (inactive)	73.3 µM (inactive)	> 100 µM (inactive)	> 100 µM (inactive)	–	72.8 µM (inactive)	87.7 µM (inactive)	> 100 µM (inactive)	84.9 µM (inactive)	–	> 100 µM (inactive)	57.8 µM (inactive)	> 100 µM (inactive)	> 100 µM (inactive)	> 100 µM (inactive)	60.3 µM (inactive)	> 100 µM (inactive)	> 100 µM (inactive)	> 100 µM (inactive)
CN1CC[C@]2(c3cccc(O)c3)CC(=O)/C(=C/c3ccc(Cl)c(Cl)c3)[C@@H]1C2	1.6 µM (inactive)	0.337 µM (active)	1.6 µM (inactive)	1.65 µM (inactive)	1.55 µM (inactive)	1.01 µM (active)	1.29 µM (inactive)	1.15 µM (inactive)	2.34 µM (inactive)	–	1.71 µM (inactive)	1.52 µM (inactive)	2.5 µM (inactive)	–	1.04 µM (active)	1.86 µM (inactive)	0.975 µM (active)	–	3.05 µM (inactive)
